Marks after values point to notes of the source that are not given here.
Experiments:
MIA rat model of OA [1] = assay: MIA trial 2 digital Randall-Selitto test (daily tacrolimus 0.3 or 0.6 mg/kg i.p., curcumin 50 mg/kg p.o., fluocinolone 0.01 mg/kg s.c.; weekly clonidine 0.1 mg/kg s.c.); format: in vivo
Procedure: (§1) The digital Randall-Selitto (dRS) test is said to be a reliable and repeatable measure of neuropathic, bone, and inflammatory pain behavior in several different models, including those of arthritic or joint pain [29, 31, 32]. Baseline and posttreatment values were evaluated using a dRS test device (IITC Life Science, Woodland Hills, CA, USA). Animals were allowed to acclimate to the testing room before all experimentation and for a minimum of 30 minutes before testing. To ensure that their hind limbs were accessible, the animals were gently suspended in a restraint sling. The joint compression threshold was measured once at each time point for the ipsilateral and contralateral knee joints. Pressure was applied gradually over approximately 10 seconds to the medial and lateral aspects of the knee joint. Measurements were taken from the first observed behavior of vocalization, struggle, or withdrawal. A cutoff value of 600 g was used to prevent injury to the animal.
(§2) Following isoflurane anesthesia, 50 μl (2 mg) of MIA was injected into the synovial space of the left knee. Animals were randomly assigned to groups, and pain behavior was assessed 7, 14, 21, and 28 days following MIA injection and intervention using WB with the Stoelting incapacitance meter (trial 1) or the dRS test (trials 2 and 3). […] Animals received MIA treatment and then saline control or therapeutic. […] Histopathology was performed at each time point and at study termination. All studies were conducted in accordance with the International Association for the Study of Pain Guidelines and were approved by the Algos Therapeutics, Inc. Institutional Animal Care and Use Committee (IACUC) before initiation. Those running the studies were blind to the treatments. See Additional file 1 for further details.

MIA rat model of OA [2] = assay: MIA trial 3 digital Randall-Selitto test (weekly i.a. clonidine 4.5 μg, tacrolimus 30 ng, fluocinolone 15 ng, meloxicam 100 μg, tranilast 500 ng, TH 150 μg; clonidine 100 μg/kg s.c.); format: in vivo
Procedure: as §1
as §2, with “details. […]” for “details.”
struggle or withdrawal. A cut-off value of 600 g was used to prevent injury to the animal. The mean and standard error of the mean (SEM) were determined for each treatment group.
Statistical significance was assigned as p ≤ 0.05. The stability of the vehicle group over time was assessed on each testing day (Days 7, 14, 21, and 28) using repeated measures one-way analysis of variance (ANOVA) comparing joint compression thresholds at each experimental time point on a given testing day versus that testing day’s pre-treatment value. Osteoarthritis-related pain in the vehicle group was estimated at each time point on each testing day by comparing ipsilateral (injured) to contralateral (normal) joint compression thresholds using paired t-tests. The progression of osteoarthritis-related pain in the vehicle group was estimated by comparing pre-treatment joint compression thresholds on each testing day versus pre-MIA measurements using repeated measures one-way ANOVA. […]
thresholds at each experimental time point on a given testing day with vehicle treated animals using an unpaired t-test. The acute effect of Tacrolimus was analyzed by comparing joint compression thresholds at each time point on a given testing day with the corresponding pre-treatment baseline values using repeated measures one-way ANOVA and compared to vehicle treated animals using […]
values using repeated measures one-way ANOVA. Chronic effects were analyzed by comparing pre-treatment joint compression thresholds on each testing day versus the appropriate Day 7 pre-treatment values using repeated measures one-way ANOVA and by comparing pre-treatment joint compression thresholds with vehicle treated animals on each testing day using an unpaired t-test or one-way ANOVA. Day 7 pre-treatment joint compression thresholds between all groups were assessed using one-way ANOVA. The Dunnett’s multiple comparison post hoc test was used when […]
dosing were housed three per cage. Animals had free access to food and water and were maintained […]
The animal colony was maintained at approximately 21 °C. All experiments were conducted in accordance with the International Association for the Study of Pain Guidelines.

[3] = day 21, tacrolimus 0.3 mg/kg, other drugs single dose

SMILES | dRS, hours after dosing with significant difference (MIA rat model of OA [1]; [3]) | dRS, hours after dosing with significant difference (MIA rat model of OA [2]; day 7) | dRS, hours after dosing with significant difference (MIA rat model of OA [2]; day 28, negative = worse) | dRS, hours after dosing with significant difference (MIA rat model of OA [2]; day 14) | dRS, hours after dosing with significant difference (MIA rat model of OA [2]; day 21) | further results
Clc1cccc(Cl)c1N=C1NCCN1 [Clonidine] | 3 h | 1 h | – | – | – | –
COc1cc(/C=C/C(=O)CC(=O)/C=C/c2ccc(O)c(OC)c2)ccc1O [Curcumin, Diferuloylmethane] | Pretrt^d | – | – | – | – | dRS, hours after dosing with significant difference (MIA rat model of OA [1]; day 7, tacrolimus 0.3 mg/kg, other drugs single dose): 1 h
CC1(C)O[C@@H]2C[C@H]3[C@@H]4C[C@H](F)C5=CC(=O)C=C[C@]5(C)[C@@]4(F)[C@@H](O)C[C@]3(C)[C@]2(C(=O)CO)O1 [Fluocinolone, Fluocinolone Acetonide] | – | 1 h | -24 h | – | – | dRS, hours after dosing with significant difference (MIA rat model of OA [1]; day 14, tacrolimus 0.3 mg/kg, other drugs single dose): 5^e h
C=CC[C@@H]1/C=C(\C)C[C@H](C)C[C@H](OC)[C@H]2O[C@@](O)(C(=O)C(=O)N3CCCC[C@H]3C(=O)O[C@H](/C(C)=C/[C@@H]3CC[C@@H](O)[C@H](OC)C3)[C@H](C)[C@@H](O)CC1=O)[C@H](C)C[C@@H]2OC [Tacrolimus] | Pretrt^d | – | – | – | – | dRS, hours after dosing with significant difference (MIA rat model of OA [1]; day 21, tacrolimus 0.6 mg/kg i.p.): 1 h
COc1ccc(C=CC(=O)Nc2ccccc2C(=O)O)cc1OC [Tranilast, N-(3′,4′-dimethoxycinnamoyl)anthranilic acid] | – | – | – | 1 h | 1 h | –
CC(C)(C)CC(=O)OCC(=O)[C@@]12OC(C)(C)O[C@@H]1C[C@H]1[C@@H]3CCC4=CC(=O)C=C[C@]4(C)[C@@]3(F)[C@@H](O)C[C@@]12C [Triamcinolone hexacetonide] | – | 3 h | -24 h | 1 h | Pretrt^f | –

Source: paper PMC4721142, “Randomized controlled studies on the efficacy of antiarthritic agents in inhibiting cartilage degeneration and pain associated with progression of osteoarthritis in the rat” (Arthritis Research & Therapy, 2016)
